Measurements taken from the NIST ThermoML archive (doi:10.1016/j.fluid.2010.10.028).

Assay: xn = mol fraction of the nth substance listed
Conditions: Liquid, Vibrating tube method

CC(C)=O [acetone] + CCCCCCC
Conditions	mass density [kg/m3]
387.31 K, 109790 kPa, x1 = 0.611	737.58
387.31 K, 114860 kPa, x1 = 0.611	740.58
387.31 K, 119850 kPa, x1 = 0.611	743.43
387.31 K, 124850 kPa, x1 = 0.611	746.21
387.31 K, 129830 kPa, x1 = 0.611	748.89
387.32 K, 1320 kPa, x1 = 0.801	639.55
387.32 K, 1540 kPa, x1 = 0.4	654.4
387.32 K, 1540 kPa, x1 = 0.8992	654.4
387.32 K, 9840 kPa, x1 = 0.801	658.47
387.32 K, 14970 kPa, x1 = 0.4	681.93
387.32 K, 14970 kPa, x1 = 0.8992	681.93
387.32 K, 24870 kPa, x1 = 0.611	663.63
387.32 K, 29860 kPa, x1 = 0.611	670.27
387.32 K, 34870 kPa, x1 = 0.611	676.42
387.32 K, 39850 kPa, x1 = 0.801	702.19
387.32 K, 39920 kPa, x1 = 0.4	716.49
387.32 K, 39920 kPa, x1 = 0.8992	716.49
387.32 K, 44860 kPa, x1 = 0.611	687.46
387.32 K, 49850 kPa, x1 = 0.801	712.89
387.32 K, 49880 kPa, x1 = 0.4	727.19
387.32 K, 49880 kPa, x1 = 0.8992	727.19
387.32 K, 54850 kPa, x1 = 0.801	717.78
387.32 K, 59840 kPa, x1 = 0.611	701.71
387.32 K, 59850 kPa, x1 = 0.4	736.82
387.32 K, 59850 kPa, x1 = 0.801	722.41
387.32 K, 59850 kPa, x1 = 0.8992	736.82
387.32 K, 64820 kPa, x1 = 0.801	726.8
387.32 K, 64830 kPa, x1 = 0.4	741.3
387.32 K, 64830 kPa, x1 = 0.8992	741.3
387.32 K, 69930 kPa, x1 = 0.611	710.16
387.32 K, 74800 kPa, x1 = 0.4	749.67
387.32 K, 74800 kPa, x1 = 0.8992	749.67
387.32 K, 74910 kPa, x1 = 0.611	714.05
387.32 K, 74910 kPa, x1 = 0.801	735.15
387.32 K, 79790 kPa, x1 = 0.4	753.62
387.32 K, 79790 kPa, x1 = 0.8992	753.62
387.32 K, 79900 kPa, x1 = 0.611	717.8
387.32 K, 84760 kPa, x1 = 0.4	757.4
387.32 K, 84760 kPa, x1 = 0.8992	757.4
387.32 K, 89750 kPa, x1 = 0.4	761.05
387.32 K, 89750 kPa, x1 = 0.8992	761.05
387.32 K, 89870 kPa, x1 = 0.611	724.87
387.32 K, 94730 kPa, x1 = 0.4	764.59
387.32 K, 94730 kPa, x1 = 0.8992	764.59
387.32 K, 94840 kPa, x1 = 0.801	749.8
387.32 K, 94850 kPa, x1 = 0.611	728.19
387.32 K, 99700 kPa, x1 = 0.4	768.01
387.32 K, 99700 kPa, x1 = 0.8992	768.01
387.32 K, 99840 kPa, x1 = 0.611	731.42
387.32 K, 104670 kPa, x1 = 0.4	771.32
387.32 K, 104670 kPa, x1 = 0.8992	771.32
387.32 K, 104810 kPa, x1 = 0.611	734.54
387.32 K, 104810 kPa, x1 = 0.801	756.41
387.32 K, 109640 kPa, x1 = 0.4	774.53
387.32 K, 109640 kPa, x1 = 0.8992	774.53
387.32 K, 109780 kPa, x1 = 0.801	759.56
387.32 K, 114600 kPa, x1 = 0.4	777.64
387.32 K, 114600 kPa, x1 = 0.8992	777.64
387.32 K, 119580 kPa, x1 = 0.4	780.68
387.32 K, 119580 kPa, x1 = 0.8992	780.68
387.32 K, 119830 kPa, x1 = 0.801	765.63
387.32 K, 124530 kPa, x1 = 0.4	783.61
387.32 K, 124530 kPa, x1 = 0.8992	783.61
387.32 K, 129840 kPa, x1 = 0.4	786.68
387.32 K, 129840 kPa, x1 = 0.8992	786.68
387.33 K, 1300 kPa, x1 = 0.7024	628.97
387.33 K, 4820 kPa, x1 = 0.7024	637.48
387.33 K, 4860 kPa, x1 = 0.492	621.33
387.33 K, 4860 kPa, x1 = 0.801	648.03
387.33 K, 5010 kPa, x1 = 0.4	662.6
387.33 K, 5010 kPa, x1 = 0.8992	662.6
387.33 K, 9820 kPa, x1 = 0.7024	647.9
387.33 K, 9850 kPa, x1 = 0.492	631.47
387.33 K, 10000 kPa, x1 = 0.4	672.89
387.33 K, 10000 kPa, x1 = 0.8992	672.89
387.33 K, 14850 kPa, x1 = 0.492	640.29
387.33 K, 14860 kPa, x1 = 0.801	667.65
387.33 K, 19810 kPa, x1 = 0.7024	665.07
387.33 K, 19860 kPa, x1 = 0.801	675.81
387.33 K, 19960 kPa, x1 = 0.4	690.05
387.33 K, 19960 kPa, x1 = 0.8992	690.05
387.33 K, 24860 kPa, x1 = 0.801	683.23
387.33 K, 24940 kPa, x1 = 0.4	697.46
387.33 K, 24940 kPa, x1 = 0.8992	697.46
387.33 K, 29820 kPa, x1 = 0.7024	679.2
387.33 K, 29830 kPa, x1 = 0.801	690
387.33 K, 29940 kPa, x1 = 0.4	704.27
387.33 K, 29940 kPa, x1 = 0.8992	704.27
387.33 K, 34860 kPa, x1 = 0.801	696.35
387.33 K, 34930 kPa, x1 = 0.4	710.58
387.33 K, 34930 kPa, x1 = 0.8992	710.58
